From US20110152313A1 (MACQUARIE UNIVERSITY, priority 2008, published 2011)

Tests used:
Test in all cases: kinase binding screen (kinase-tagged T7 phage, qPCR), % Ctrl
YSK4 = target: T1, YSK4 (Homo sapiens, UniProt Q56UN5)
T1 sequence (Q56UN5 1-1328): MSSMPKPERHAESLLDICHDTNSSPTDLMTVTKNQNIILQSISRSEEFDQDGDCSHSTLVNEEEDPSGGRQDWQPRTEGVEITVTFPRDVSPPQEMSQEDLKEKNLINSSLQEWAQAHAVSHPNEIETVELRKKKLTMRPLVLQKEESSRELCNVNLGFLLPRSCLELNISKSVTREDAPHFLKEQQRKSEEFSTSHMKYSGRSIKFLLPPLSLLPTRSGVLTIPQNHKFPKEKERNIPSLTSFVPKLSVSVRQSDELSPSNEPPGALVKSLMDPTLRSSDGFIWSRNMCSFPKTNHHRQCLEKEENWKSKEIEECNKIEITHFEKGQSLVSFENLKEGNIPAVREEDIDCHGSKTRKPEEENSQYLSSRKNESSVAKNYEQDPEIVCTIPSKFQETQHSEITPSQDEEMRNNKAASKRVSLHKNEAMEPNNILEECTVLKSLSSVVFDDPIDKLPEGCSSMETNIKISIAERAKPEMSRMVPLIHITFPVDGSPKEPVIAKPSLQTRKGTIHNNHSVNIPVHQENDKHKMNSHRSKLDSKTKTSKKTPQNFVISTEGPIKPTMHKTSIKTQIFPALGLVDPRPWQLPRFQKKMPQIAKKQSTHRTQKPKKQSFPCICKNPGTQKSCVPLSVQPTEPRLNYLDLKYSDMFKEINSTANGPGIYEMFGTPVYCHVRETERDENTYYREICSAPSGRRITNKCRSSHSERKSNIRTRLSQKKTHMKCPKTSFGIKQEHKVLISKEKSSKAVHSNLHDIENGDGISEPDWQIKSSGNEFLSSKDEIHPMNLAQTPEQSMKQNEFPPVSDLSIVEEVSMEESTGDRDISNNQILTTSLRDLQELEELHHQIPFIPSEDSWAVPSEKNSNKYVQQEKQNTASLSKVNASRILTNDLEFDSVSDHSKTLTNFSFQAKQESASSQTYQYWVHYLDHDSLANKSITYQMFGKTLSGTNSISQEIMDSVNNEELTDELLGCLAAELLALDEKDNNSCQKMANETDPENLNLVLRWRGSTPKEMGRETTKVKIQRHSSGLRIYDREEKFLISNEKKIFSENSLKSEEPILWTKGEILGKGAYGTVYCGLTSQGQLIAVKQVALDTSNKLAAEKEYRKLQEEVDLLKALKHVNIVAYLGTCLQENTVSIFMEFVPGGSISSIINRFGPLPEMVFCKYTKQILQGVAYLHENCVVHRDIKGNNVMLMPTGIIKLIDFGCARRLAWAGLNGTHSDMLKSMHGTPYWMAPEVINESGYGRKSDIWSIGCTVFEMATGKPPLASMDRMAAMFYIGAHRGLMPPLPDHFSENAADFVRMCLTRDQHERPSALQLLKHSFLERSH
Outline: (§1)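 Kinase-tagged T7 phage lysates were prepared in E. coli (MOI 0.4, 32° C until lysis), then exposed to ligand-bearing beads and test compound at a fixed concentration. Kinase remaining bound was eluted and measured by qPCR.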

SgK085 = target: T2, SgK085 (Homo sapiens, UniProt Q86YV6)
T2 sequence (Q86YV6 1-388): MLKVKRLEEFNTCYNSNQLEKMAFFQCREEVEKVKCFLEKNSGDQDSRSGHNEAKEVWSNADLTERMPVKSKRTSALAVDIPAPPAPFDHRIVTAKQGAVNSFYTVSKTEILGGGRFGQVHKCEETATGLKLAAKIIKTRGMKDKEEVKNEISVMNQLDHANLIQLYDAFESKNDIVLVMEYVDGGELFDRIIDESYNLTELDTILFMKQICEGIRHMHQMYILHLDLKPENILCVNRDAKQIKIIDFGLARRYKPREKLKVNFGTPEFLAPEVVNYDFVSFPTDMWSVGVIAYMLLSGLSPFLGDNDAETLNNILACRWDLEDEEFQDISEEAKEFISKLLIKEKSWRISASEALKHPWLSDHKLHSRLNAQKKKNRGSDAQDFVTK
Outline: as §1

CAMK4 = target: T3, CAMK4 (Homo sapiens, UniProt Q16566)
T3 sequence (Q16566 1-473): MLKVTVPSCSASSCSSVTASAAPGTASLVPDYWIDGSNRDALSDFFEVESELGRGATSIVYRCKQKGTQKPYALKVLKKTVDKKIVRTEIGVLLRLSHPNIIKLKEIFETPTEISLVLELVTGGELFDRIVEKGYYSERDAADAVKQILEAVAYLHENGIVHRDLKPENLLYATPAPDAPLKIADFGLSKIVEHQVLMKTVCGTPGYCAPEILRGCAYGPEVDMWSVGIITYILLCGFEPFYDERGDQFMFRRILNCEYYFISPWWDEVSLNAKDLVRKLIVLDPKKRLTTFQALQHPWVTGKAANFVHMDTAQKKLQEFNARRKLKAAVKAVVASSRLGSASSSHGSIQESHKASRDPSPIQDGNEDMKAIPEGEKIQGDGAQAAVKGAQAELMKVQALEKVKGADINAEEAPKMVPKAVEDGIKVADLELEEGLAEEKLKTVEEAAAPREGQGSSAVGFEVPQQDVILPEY
Outline: as §1

CAMK2A = CAMK2A (Homo sapiens, UniProt Q9UQM7)
Outline: as §1

CAMKK2 = CAMKK2 (Homo sapiens, UniProt Q96RR4)
Outline: as §1

Chain of CAMKK2 (Q96RR4 whole entry): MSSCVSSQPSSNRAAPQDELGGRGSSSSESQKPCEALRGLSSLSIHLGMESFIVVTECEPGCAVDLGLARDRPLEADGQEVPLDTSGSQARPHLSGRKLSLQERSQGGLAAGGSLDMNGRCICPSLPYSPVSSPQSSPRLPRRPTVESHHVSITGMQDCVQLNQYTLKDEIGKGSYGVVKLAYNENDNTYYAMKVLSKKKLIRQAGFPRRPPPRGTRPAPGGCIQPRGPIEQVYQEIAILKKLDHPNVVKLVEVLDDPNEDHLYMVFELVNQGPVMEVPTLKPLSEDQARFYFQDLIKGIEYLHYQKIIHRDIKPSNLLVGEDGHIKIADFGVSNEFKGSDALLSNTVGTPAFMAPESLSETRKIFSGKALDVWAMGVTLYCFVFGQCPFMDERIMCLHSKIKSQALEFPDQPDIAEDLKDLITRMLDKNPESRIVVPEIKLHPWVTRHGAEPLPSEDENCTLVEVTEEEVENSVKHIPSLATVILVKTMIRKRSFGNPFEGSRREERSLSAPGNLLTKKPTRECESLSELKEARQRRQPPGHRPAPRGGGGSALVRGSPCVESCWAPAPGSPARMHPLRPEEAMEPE
Chain of CAMK2A (Q9UQM7 whole entry): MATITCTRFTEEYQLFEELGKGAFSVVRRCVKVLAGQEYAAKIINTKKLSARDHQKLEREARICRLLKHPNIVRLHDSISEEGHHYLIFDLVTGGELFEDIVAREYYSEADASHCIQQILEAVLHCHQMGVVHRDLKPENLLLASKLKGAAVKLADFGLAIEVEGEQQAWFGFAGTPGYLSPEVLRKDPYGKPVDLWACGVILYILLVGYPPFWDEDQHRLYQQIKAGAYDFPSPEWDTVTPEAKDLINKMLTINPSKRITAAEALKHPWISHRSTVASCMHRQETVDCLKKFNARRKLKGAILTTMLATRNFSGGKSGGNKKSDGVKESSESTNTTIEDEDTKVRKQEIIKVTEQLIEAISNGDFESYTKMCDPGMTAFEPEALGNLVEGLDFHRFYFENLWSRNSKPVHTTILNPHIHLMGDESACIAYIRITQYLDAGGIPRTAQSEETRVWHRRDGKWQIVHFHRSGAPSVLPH

remaining activity at 10 µM (YSK4; 10 μM) [%] | remaining activity at 10 µM (SgK085; 10 μM) [%] | remaining activity at 10 µM (CAMK4; 10 μM) [%] | remaining activity at 10 µM (CAMK2A; 10 μM) [%] | remaining activity at 10 µM (CAMKK2; 10 μM) [%] | Structure (SMILES) | remaining activity at 1 µM (YSK4) [%] | remaining activity at 1 µM (SgK085) [%] | remaining activity at 1 µM (CAMK4) [%] | remaining activity at 1 µM (CAMK2A) [%] | remaining activity at 1 µM (CAMKK2) [%]
– | – | – | – | – | Nc1nc2c(-c3cnc4ccccc4c3)nccc2[nH]1 [drawing 36, 4-(quinolin-3-yl)-1H-imidazo[4,5-c]pyridin-2-amine] | 82 | 92 | 100 | 100 | 100
5.1 | 90 | 97 | 97 | 83 | Nc1nc2c(-c3cc(Br)c(Br)[nH]3)nccc2[nH]1 [Ageladine A, ageladine A, reference compound] | 56 | 89 | 100 | 100 | 90
– | – | – | – | – | Nc1nc2c(-c3ccccn3)nccc2[nH]1 [drawing 35, 4-(pyrid-2-yl)-1H-imidazo[4,5-c]pyridin-2-amine] | 16 | 43 | 100 | 100 | 35
